# “Also recorded” adds a separate entry of the source.
# Columns and labels:
# [1] = test system: Mac-1 overexpressing cells; details: reference (37); cited from earlier work
# fibrin = target: T1, fibrin (Mus musculus, UniProt E9PV24+Q8K0E8+Q8VCM7); assay: In vitro fibrin polymerization turbidity assay in plasma; assay type: biochemical; details: citrate plasma, bovine thrombin 0.2 U/ml, OD350
# T1 construct: from tissue; host or cells: citrated mouse plasma, diluted tenfold
# T1 sequence (Q8VCM7 26-436): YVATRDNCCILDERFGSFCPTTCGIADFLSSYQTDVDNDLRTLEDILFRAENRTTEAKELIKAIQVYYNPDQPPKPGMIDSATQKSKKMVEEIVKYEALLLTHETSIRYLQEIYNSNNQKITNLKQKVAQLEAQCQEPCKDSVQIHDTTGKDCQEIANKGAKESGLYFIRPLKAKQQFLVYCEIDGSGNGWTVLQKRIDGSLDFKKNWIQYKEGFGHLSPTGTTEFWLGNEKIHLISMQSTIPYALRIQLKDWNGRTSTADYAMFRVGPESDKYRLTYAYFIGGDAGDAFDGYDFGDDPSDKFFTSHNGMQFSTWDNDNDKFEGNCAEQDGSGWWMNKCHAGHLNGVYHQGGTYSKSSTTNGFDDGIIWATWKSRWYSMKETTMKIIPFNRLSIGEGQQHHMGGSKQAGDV
# T1 sequence (E9PV24 37-789 limits assumed): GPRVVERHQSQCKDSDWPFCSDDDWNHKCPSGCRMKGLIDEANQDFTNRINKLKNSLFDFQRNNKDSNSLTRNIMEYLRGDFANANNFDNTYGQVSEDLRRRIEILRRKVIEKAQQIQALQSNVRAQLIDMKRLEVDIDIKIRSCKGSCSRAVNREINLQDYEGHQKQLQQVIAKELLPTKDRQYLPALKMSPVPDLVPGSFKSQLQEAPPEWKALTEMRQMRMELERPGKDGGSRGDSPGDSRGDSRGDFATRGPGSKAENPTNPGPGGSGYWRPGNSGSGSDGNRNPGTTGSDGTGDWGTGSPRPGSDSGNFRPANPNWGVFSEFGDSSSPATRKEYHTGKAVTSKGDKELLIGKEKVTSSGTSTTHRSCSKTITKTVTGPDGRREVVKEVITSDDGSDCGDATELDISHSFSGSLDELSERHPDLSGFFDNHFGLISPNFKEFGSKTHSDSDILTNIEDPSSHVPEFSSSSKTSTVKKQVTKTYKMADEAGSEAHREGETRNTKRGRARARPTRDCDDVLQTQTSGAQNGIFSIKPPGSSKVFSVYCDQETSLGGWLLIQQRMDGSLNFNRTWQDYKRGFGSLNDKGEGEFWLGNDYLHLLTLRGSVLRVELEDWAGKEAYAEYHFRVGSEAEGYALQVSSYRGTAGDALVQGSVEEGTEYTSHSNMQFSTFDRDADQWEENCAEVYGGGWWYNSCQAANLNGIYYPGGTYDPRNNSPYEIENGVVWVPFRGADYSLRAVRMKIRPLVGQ
# T1 sequence (Q8K0E8 35-481 limits assumed): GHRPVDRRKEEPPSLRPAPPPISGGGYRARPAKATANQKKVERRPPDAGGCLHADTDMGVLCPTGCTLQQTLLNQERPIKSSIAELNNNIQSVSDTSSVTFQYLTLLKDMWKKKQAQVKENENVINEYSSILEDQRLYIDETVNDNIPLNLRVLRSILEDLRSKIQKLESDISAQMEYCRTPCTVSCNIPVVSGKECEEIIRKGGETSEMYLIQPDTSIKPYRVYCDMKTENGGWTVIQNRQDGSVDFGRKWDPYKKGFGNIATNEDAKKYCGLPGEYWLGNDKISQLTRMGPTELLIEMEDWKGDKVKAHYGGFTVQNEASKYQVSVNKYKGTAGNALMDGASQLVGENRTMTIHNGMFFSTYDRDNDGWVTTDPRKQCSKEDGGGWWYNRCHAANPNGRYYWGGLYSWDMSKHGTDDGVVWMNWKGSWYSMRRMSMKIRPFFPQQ
# Procedure: Hematological Analyses. Citrated plasma was prepared from mice administered intranasally 30 μg or 90 μg of γ^377-395 peptide or saline control daily for seven days. Plasma clotting times were measured by combining 10 μl of citrated plasma with 10 μl of 2 U/ml bovine thrombin (Enzyme Research Laboratories, South Bend, Ind., USA) and 40 mM. CaCl2 in a weigh boatfloating in a 37° C. water bath. Time to clot was determined by mixing with a toothpick. Plasma thrombin times were established as described previously (15). Fibrin polymerization was evaluated by standard turbidity assays using plasma. Briefly, citrate plasma (diluted tenfold in 20 mM HEPES, pH 7.4, containing 0.15 M NaCl and 5 mM-amino caproic acid) was combined with bovine thrombin (final concentration 0.2 U/ml; Enzyme Research Laboratories, South Bend, Ind., USA), and Ca^2+ (10 mM), and OD350 measurements were taken every 30 seconds.
substance,measurement,setting,value
tyr-ser-met-lys-lys-thr-thr-met-lys-ile-ile-pro-phe-asn-arg-leu-thr-ile-gly (YSMKKTTMKIIPFNRLTIG) (listed as Homo sapiens) [γ^377-395 peptide],concentration shown to inhibit adhesion of Mac-1 overexpressing cells to immobilized fibrinogen,[1],200 µM
same,effect on fibrin polymerization,fibrin,did not alter; also recorded: had no effect
